Experimental data as given in patent US6528068B1, “Cosmetic composition containing N-acyl neutral amino acid esters of lower alcohols” (Ajinomoto Co., Inc., priority 1997, dated 2003).

How the values were obtained:
[1] = Evaluation of pigment dispersibility (wetting point / flowing point); assay type: physicochemical; conditions: difference between wetting point and flowing point; liquid paraffin added to TiO2 containing 10% by weight of oily material
Experimental: With respect to various oily materials including some N-acylamino acid esters of the present invention, powdery compositions formed by blending each oily material with a powder pigment of titanium dioxide (TiO2) were evaluated or examined from various aspects. This will be described in detail below.
The minimum value in terms of parts by weight in which the powder was put together was defined as wetting point. […] Liquid paraffin was further added thereto from the wetting point, and the minimum numeral of parts by weight of the liquid paraffin in which the mixture came to show a fluidity was defined as flowing point.
The smaller the difference between the wetting point and the flowing point, the better the dispersibility (“Science of Fragrance”, published by Fragrance Journal in 1990, p. 390). Accordingly, the index of pigment dispersibility was evaluated in terms of the difference between the wetting point and the flowing point. That is, in Table 47, when the difference between the wetting point and the flowing point was up to 35, it was rated as ∘∘; when the difference was between 36 and 45, it was rated as ∘; and when the difference was between 46 and 55, it was rated as Δ; and when the difference was 56 or more, it was rated as ×.

[2] = Examination of solubility of a UV-A absorbent in various oily materials; conditions: amount of “Soft Shade DH” dissolved in 100 g of the oily material
[3] = solids; cited from earlier work
[4] = Jap. pat. Publn. (kokoku); cited from earlier work

SMILES	Pigment dispersibility [1]	Solubility [2]	solubility in water and oil [3]	compatibility with an oily solvent [4]
CCCCCCCCCCCC(=O)N(C)CCC(=O)OC(C)C [Synthesis Example 15, N-lauroyl-N-methyl-β-alanine isopropyl ester]	◯◯	◯ (It is at least 10 g.)	–	–
CCCCCCCCCCCC(=O)N(C)CC(=O)OC(C)C [Synthesis Example 14, N-laurolysarcosine isopropyl ester]	◯◯	◯ (It is at least 10 g.)	–	–
COc1ccc(C(=O)CC(=O)c2ccc(C(C)(C)C)cc2)cc1 [4-t-butyl-4′-methoxybenzoylmethane]	–	–	sparingly soluble in water and oil	–
CCCCCCCCCCCCCC(=O)OC(C)C [isopropyl myristate]	Δ (when the difference was between 46 and 55, it was rated as Δ)	X (The amount of the compound dissolved in 100 g of the oily material is less than 5 g.)	–	–
CCCCCCCCCCCC(=O)N(C)CC(=O)OCCCCCCCCCCCCCCCC(C)C [Reference Synthesis Example 1, N-lauroylsarcosine isostearyl ester]	Δ (when the difference was between 46 and 55, it was rated as Δ)	X (The amount of the compound dissolved in 100 g of the oily material is less than 5 g.)	–	–
CCCCCCCCCCCCCCCCCC(=O)OCC(O)CO (stereo not shown) [glycerol stearate]	–	X (The amount of the compound dissolved in 100 g of the oily material is less than 5 g.)	–	–
CCCCC(CC)C(=O)N(C)CCC(=O)OC (stereo not drawn) [N-2-ethylhexanoyl-N-methyl-β-alanine.methyl ester]	–	–	–	poor
CCCCCCCCCCCC(=O)N[C@@H](CCC(=O)OCC(CCCCCCCC)CCCCCCCCCC)C(=O)OCC(CCCCCCCC)CCCCCCCCCC (stereo partly shown) [lauroylglutamic acid octyldodecyl diester]	Δ (when the difference was between 46 and 55, it was rated as Δ)	–	–	–
CCCCCCCCCCCC(=O)N(C)CC(=O)OCC(CCCCCCCC)CCCCCCCCCC (stereo not shown) [Reference Synthesis Example 2, N-lauroylsarcosine octyl dodecyl ester]	–	X (The amount of the compound dissolved in 100 g of the oily material is less than 5 g.)	–	–
